Data as given in patent publication US10077261B2, “Imidazolin-5-one derivative useful as FASN inhibitors for the treatment of cancer” (Janssen Pharmaceutica NV, priority 2012, dated 2018).

Legend:
[1] = test system: PC-3M-Luc-C6 prostate cells; test: In vitro PC-3M-Luc-C6 prostate cell proliferation assay in lipid reduced medium; type: cell-based; conditions: 96 h, read-out: pIC50 PC-3M-Luc-C6 prostate cell (converted)
[2] = test system: LNCaP-Vancouver prostate cells; test: In vitro LNCaP Vancouver prostate cell proliferation assay in lipid reduced medium; type: cell-based; conditions: read-out: pIC50 LNCaP_Vancouver prostate cell (converted)
A2780 ovarian cells [3] = test: A2780 ovarian cell proliferation assay in lipid reduced medium, with palmitate (MTT); type: cell-based; conditions: Homo sapiens, A2780, 96 h; read-out: pIC50 A2780 Ovarian Cell, With Palmitate (converted)
Procedure, shortened: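 In this palmitate-supplemented format, compound dilutions (30 μM down to 0.01 μM) are added to cells in lipid-reduced serum with 25 μM palmitate, 0.2% fatty-acid-free BSA and 0.25% ethanol. After four days (96 h) MTT absorbance at 544 nm is recorded and fitted by minimum sum of squares.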

[4] = molecular target: T1, hFASN enzyme (full length) (Homo sapiens, UniProt P49327); test: Fatty Acid Synthase (FASN) inhibition scintillation proximity assay; type: biochemical; conditions: for inhibition at 10 µM: read-out: Human FASN % inhibition @ 10 μM, 10 μM test compound; for IC50: read-out: Human FASN pIC50 (converted)
T1 construct: 10 μL hFASN enzyme (full length, 300 ng, purified in house); made in house
T1 sequence (P49327 whole entry): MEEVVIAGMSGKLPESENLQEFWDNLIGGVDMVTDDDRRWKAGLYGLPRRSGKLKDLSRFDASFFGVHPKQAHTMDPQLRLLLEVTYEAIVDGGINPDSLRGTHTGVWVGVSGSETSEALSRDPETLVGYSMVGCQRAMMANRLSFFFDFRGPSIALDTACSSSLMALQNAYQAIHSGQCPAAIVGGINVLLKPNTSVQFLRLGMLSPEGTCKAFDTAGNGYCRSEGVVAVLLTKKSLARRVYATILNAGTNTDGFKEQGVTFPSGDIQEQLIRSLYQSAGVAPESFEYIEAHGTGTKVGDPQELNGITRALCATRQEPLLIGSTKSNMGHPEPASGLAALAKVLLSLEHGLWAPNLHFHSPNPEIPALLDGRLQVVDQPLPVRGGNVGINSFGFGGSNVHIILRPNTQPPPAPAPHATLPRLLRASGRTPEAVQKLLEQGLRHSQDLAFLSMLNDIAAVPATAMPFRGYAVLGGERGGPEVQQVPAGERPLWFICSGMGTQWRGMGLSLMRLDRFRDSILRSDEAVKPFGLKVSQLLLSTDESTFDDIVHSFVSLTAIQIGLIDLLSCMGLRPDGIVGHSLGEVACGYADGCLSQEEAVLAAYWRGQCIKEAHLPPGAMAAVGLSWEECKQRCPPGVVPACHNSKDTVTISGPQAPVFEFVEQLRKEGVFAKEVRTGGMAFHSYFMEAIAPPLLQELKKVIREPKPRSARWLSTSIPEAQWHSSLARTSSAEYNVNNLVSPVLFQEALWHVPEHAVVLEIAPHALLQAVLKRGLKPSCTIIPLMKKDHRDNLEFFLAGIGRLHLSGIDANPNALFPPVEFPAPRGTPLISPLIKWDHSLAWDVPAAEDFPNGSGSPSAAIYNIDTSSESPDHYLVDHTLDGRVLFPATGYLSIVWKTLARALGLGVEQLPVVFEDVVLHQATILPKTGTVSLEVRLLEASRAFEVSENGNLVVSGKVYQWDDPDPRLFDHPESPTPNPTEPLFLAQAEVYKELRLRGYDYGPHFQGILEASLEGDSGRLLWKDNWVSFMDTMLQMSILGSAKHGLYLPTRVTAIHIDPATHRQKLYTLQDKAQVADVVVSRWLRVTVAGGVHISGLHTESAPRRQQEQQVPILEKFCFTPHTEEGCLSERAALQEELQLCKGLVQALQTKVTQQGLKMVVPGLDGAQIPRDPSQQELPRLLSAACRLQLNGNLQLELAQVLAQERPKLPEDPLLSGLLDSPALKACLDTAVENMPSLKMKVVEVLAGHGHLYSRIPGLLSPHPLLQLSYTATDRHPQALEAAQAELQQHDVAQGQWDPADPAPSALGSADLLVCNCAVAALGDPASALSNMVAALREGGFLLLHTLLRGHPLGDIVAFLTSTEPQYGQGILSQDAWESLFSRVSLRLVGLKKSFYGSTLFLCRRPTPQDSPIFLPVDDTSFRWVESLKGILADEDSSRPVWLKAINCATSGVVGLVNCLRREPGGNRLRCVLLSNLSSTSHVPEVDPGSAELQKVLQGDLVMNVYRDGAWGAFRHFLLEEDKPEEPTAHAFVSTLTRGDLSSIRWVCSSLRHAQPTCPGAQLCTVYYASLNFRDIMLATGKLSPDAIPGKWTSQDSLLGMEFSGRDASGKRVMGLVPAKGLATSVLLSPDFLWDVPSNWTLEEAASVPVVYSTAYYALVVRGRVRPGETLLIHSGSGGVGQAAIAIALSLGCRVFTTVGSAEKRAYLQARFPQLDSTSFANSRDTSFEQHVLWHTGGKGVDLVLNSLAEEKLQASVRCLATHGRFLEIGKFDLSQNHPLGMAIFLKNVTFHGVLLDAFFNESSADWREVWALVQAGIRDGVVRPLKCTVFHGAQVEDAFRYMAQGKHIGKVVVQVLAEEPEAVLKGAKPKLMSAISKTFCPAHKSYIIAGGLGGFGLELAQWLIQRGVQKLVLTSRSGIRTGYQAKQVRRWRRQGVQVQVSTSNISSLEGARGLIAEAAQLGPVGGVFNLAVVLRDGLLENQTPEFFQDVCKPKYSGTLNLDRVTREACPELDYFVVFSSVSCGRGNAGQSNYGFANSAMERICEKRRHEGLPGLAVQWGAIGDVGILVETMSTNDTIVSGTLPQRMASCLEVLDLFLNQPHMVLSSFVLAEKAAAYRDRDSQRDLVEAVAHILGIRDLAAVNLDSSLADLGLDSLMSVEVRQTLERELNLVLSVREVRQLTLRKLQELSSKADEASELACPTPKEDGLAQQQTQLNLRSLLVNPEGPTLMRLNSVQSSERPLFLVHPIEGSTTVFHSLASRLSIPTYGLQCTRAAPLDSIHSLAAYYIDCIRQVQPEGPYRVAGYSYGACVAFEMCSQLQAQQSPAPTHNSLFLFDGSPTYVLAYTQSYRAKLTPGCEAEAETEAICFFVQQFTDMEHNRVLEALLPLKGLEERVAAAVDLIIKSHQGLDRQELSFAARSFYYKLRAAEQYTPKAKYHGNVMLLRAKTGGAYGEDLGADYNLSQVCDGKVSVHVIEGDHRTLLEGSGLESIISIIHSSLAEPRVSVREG
Procedure, shortened: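 Read-out relies on hydrophobic ³H-palmitate product, formed from ³H-acetyl-CoA and malonyl-CoA, binding streptavidin imaging beads, measured at 610±20 nm after at least 24 h. Full-length enzyme (300 ng) in phosphate buffer pH 7.5 with DTT; eight compound concentrations, 0.01–30 μM.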

A2780 ovarian cells [5] = test: A2780 ovarian cell proliferation assay in lipid reduced medium, without palmitate (MTT); type: cell-based; conditions: Homo sapiens, A2780, 96 h; read-out: pIC50 A2780 Ovarian Cell, Without Palmitate (converted)
[6] = molecular target: Fatty Acid Synthase Keto-reductase Domain (FASN KR) (Homo sapiens, UniProt P49327); test: Fatty Acid Synthase keto-reductase domain (FASN KR) inhibition, NADPH oxidation at 340 nm
Sequence of Fatty Acid Synthase Keto-reductase Domain (FASN KR) (P49327 whole entry, the tested form may be a part): as the sequence (P49327 whole entry) above
Procedure: After 20 minutes incubation at room temperature the plate was measured again (T2).
The decrease in absorbance was calculated as (Absorbance before incubation T1)−(Absorbance following incubation T2).
A plot of Controlmin versus test compound concentration was fitted to a 4-parameter logistic curve using a non-linear least squares regression method.

Row | Compound | IC50 [1] [nM] | IC50 [2] [nM] | IC50 (A2780 ovarian cells [3]) [nM] | inhibition at 10 µM [4] [%] | IC50 [4] [nM] | IC50 (A2780 ovarian cells [5]) [nM] | IC50 [6] [nM]
1 | O=C(C1CC1)N1CC[C@@H](CN2C(=O)C3(CC3)N=C2c2ccc(-c3ccc4cc[nH]c4c3)cn2)C1 [compound 428, 6-{[(3R)-1-(Cyclopropylcarbonyl)pyrrolidin-3-yl]methyl}-5-[5-(1H-indol-6-yl)pyridin-2-yl]-4,6-diazaspiro[2.4]hept-4-en-7-one] | 794 | 2820 | > 10000 | 101 | 138 | ~1100 | 589
2 | Cc1cc2cc(-c3ccc(C4=NC5(CC5)C(=O)N4CC4CN(C(=O)C5CC5)C4)cc3)ccc2s1 [compound 432, 6-{[1-(Cyclopropylcarbonyl)azetidin-3-yl]methyl}-5-[4-(2-methyl-1-benzothiophen-5-yl)phenyl]-4,6-diazaspiro[2.4]hept-4-en-7-one] | 871 | 2040 | > 6170 | 98 | 141 | 1510 | 447
3 | O=C(C1CC1)N1CC(CN2C(=O)C3(CC3)N=C2c2ccc(-c3ccc4[nH]ccc4c3)c(F)c2)C1 [compound 440, 6-{[1-(Cyclopropylcarbonyl)azetidin-3-yl]methyl}-5-[3-fluoro-4-(1H-indol-5-yl)phenyl]-4,6-diazaspiro[2.4]hept-4-en-7-one] | 234 | 1150 | > 10000 | 97 | 195 | 95.5 | 214
4 | Cc1cc(C2=NC3(CC3)C(=O)N2C[C@@H]2CCN(C(=O)C3CC3)C2)ccc1-c1ccc2[nH]ncc2c1 [compound 444, 6-{[(3R)-1-(Cyclopropylcarbonyl)pyrrolidin-3-yl]methyl}-5-[4-(1H-indazol-5-yl)-3-methylphenyl]-4,6-diazaspiro[2.4]hept-4-en-7-one] | 417 | 1820 | > 10000 | 95 | 251 | ~209 | 562
5 | Cc1cc(C2=NC3(CC3)C(=O)N2C[C@@H]2CCN(C(=O)C3CC3)C2)ccc1-c1cccc2[nH]ncc12 [compound 445, 6-{[(3R)-1-(Cyclopropylcarbonyl)pyrrolidin-3-yl]methyl}-5-[4-(1H-indazol-4-yl)-3-methylphenyl]-4,6-diazaspiro[2.4]hept-4-en-7-one] | 234 | 1170 | > 10000 | 100 | 182 | 67.6 | 209
6 | Nc1cc(-c2ccc(C3=NC4(CC4)C(=O)N3C[C@@H]3CCN(C(=O)C4CC4)C3)cc2)ccn1 [compound 452, 5-[4-(2-Aminppyridin-4-yl)phenyl]-6-{[(3R)-1-(cyclopropylcarbonyl)pyrrolidin-3-yl]methyl}-4,6-diazaspiro[2.4]hept-4-en-7-one] | 550 | 2040 | > 10000 | 97 | 229 | 631 | 525
7 | O=C(C1CC1)N1CC[C@@H](CN2C(=O)C3(CC3)N=C2c2ccc(-c3ccc4c(c3)COCC4)cc2)C1 [compound 453, 6-{[(3R)-1-(Cyclopropylcarbonyl)pyrrolidin-3-yl]methyl}-5-[4-(3,4-dihydro-1H-2-benzopyran-7-yl)phenyl]-4,6-diazaspiro[2.4]hept-4-en-7-one] | 1620 | 2950 | > 10000 | 94 | 245 | 2140 | 1120
8 | O=C1Cc2cc(-c3ccc(C4=NC5(CC5)C(=O)N4C[C@@H]4CCN(C(=O)C5CC5)C4)cc3)ccc2N1 [compound 457, 5-[4-(6-{[(3R)-1-(Cyclopropylcarbonyl)pyrrolidin-3-yl]methyl}-7-oxo-4,6-diazaspiro[2.4]hept-4-en-5-yl)phenyl]-1,3-dihydro-2H-indol-2-one] | 2190 | > 3020 | > 6170 | 91 | 457 | 1260 | 1450
9 | O=C1Cc2ccc(-c3ccc(C4=NC5(CC5)C(=O)N4C[C@@H]4CCN(C(=O)C5CC5)C4)cc3)cc2N1 [compound 461, 6-[4-(6-{[(3R)-1-(Cyclopropylcvarbonyl)pyrrolidin-3-yl]methyl}-7-oxo-4,6-diazaspiro[2.4]hept-4-en-5-yl)phenyl]-1,3-dihydro-2H-indol-2-one] | ~603 | ~2510 | > 10000 | 95 | 141 | ~427 | 1170
10 | O=C(C1CC1)N1CC[C@@H](CN2C(=O)C3(CC3)N=C2c2ccc(-c3ccc4c(c3)CCO4)cc2)C1 [compound 462, 6-{[(3R)-1-(Cyclopropylcarbonyl)pyrrolidin-3-yl]methyl}-5-[4-(2,3-dihydro-1-benzofuran-5-yl)phenyl]-4,6-diazaspiro[2.4]hept-4-en-7-one] | 1170 | 2340 | > 10000 | 98 | 158 | 1860 | 912
11 | N#Cc1cc2cc(-c3ccc(C4=NC5(CC5)C(=O)N4C[C@@H]4CCN(C(=O)C5CC5)C4)cc3F)ccc2o1 [compound 463, 5-[4-(6-{[(3R)-1-(Cyclopropylcarbonyl)pyrrolidin-3-yl]methyl}-7-oxo-4,6-diazaspiro[2.4]hept-4-en-5-yl)-2-fluorophenyl]-1-benzofuran-2-carbonitrile] | 1910 | 7240 | > 10000 | 93 | 224 | ~3800 | 977
12 | O=C(C1CC1)N1CC[C@@H](CN2C(=O)C3(CC3)N=C2c2ccc(-c3ccc4c(=O)[nH]ccc4c3)cc2)C1 [compound 467, 6-[4-(6-{[(3R)-1-(Cyclopropylcarbonyl)pyrrolidin-3-yl]methyl}-7-oxo-4,6-diazaspiro[2.4]hept-4-en-5-yl)phenyl]isoquinolin-1(2H)-one] | 776 | 2880 | > 10000 | 93 | 331 | 759 | 977
13 | COc1nccc2cc(-c3ccc(C4=NC5(CC5)C(=O)N4C[C@@H]4CCN(C(=O)C5CC5)C4)cc3)ccc12 [compound 468, 6-{[(3R)-1-(Cyclopropylcarbonyl)pyrrolidin-3-yl]methyl}-5-[4-(1-methoxyisoquinolin-6-yl)phenyl]-4,6-diazaspiro[2.4]hept-4-en-7-one] | 550 | 2040 | > 10000 | 90 | 427 | 661 | 1580
14 | COc1cc2cc(-c3ccc(C4=NC5(CC5)C(=O)N4C[C@@H]4CCN(C(=O)C5CC5)C4)cc3)ccc2cn1 [compound 470, 6-{[(3R)-1-(Cyclopropylcarbonyl)pyrrolidin-3-yl]methyl}-5-[4-(3-methoxyisoquinolin-6-yl)phenyl]-4,6-diazaspiro[2.4]hept-4-en-7-one] | ~631 | 1480 | > 10000 | 98 | 182 | ~933 | 115
15 | N#Cc1cc2cc(-c3ccc(C4=NC5(CC5)C(=O)N4CC4CN(C(=O)C5CC5)C4)cc3)ccc2o1 [compound 475, 5-[4-(6-{[1-(Cyclopropylcarbonyl)azetidin-3-yl]methyl}-7-oxo-4,6-diazaspiro[2.4]hept-4-en-5-yl)phenyl]-1-benzofuran-2-carbonitrile] | 661 | 3310 | > 10000 | 93 | 166 | 813 | 372
16 | O=C(C1CC1)N1CC[C@@H](CN2C(=O)C3(CC3)N=C2c2ccc(-c3ccc4c(Cl)nccc4c3)cc2)C1 [compound 479, 5-[4-(1-Chloroisoquinolin-6-yl)phenyl]-6-{[(3R)-1-(cyclopropylcarbonyl)pyrrolidin-3-yl]methyl}-4,6-diazaspiro[2.4]hept-4-en-7-one] | 302 | 933 | > 10000 | 95 | 162 | 692 | 447
17 | Cn1nc(N)c2ccc(-c3ccc(C4=NC5(CC5)C(=O)N4C[C@@H]4CCN(C(=O)C5CC5)C4)cc3)cc21 [compound 483, 5-[4-(3-Amino-1-methyl-1H-indazol-6-yl)phenyl]-6-{[(3R)-1-(cyclopropylcarbonyl)pyrrolidin-3-yl]methyl}-4,6-diazaspiro[2.4]hept-4-en-7-one] | ~91.2 | 380 | > 10000 | 95 | 107 | 47.9 | 174
